In data set [1] the test system is ZIKV^GFP. Kind of data set: ZIKV^GFP antiviral assay, GFP by FACS at 24 h post-infection. The format is cell-based. The following applies: Zika virus. The source says:
The antiviral activity of the compounds (C1 and C3 to C7) of formula (I) has been evaluated against Zika virus as representative of flaviviruses. Vero, A549 or Huh7.5 cells were infected with ZIKV^GFP (MOI=2) and simultaneously treated with increasing concentrations of the compounds of formula (I) (C1 and C3 to C7) or ternatin (ten-fold serial dilutions of considered compound).
Background: In flow cytometry, cells or beads pass a laser one at a time.

A short description of data set [2]: Cellular cytotoxicity, MTT assay, Vero E6. It is filed as cell-based. Conditions: african green monkey, Vero E6 cells, 48 h of treatment. The protocol:
(§1) Cytotoxicity of the compounds of formula (I) was evaluated on A549, Vero E6 and Huh7 cells by measuring the mitochondrial activity after 48 h of treatment by an MTT assay.

Data set [3] in a line: Cellular cytotoxicity, MTT assay, A549. The format is cell-based. The following applies: human, A549 cells, 48 h of treatment. The procedure: as §1
(In general: Tetrazolium assays rely on reduction of a dye to a coloured formazan, in cell work by metabolically active cells.)

Data set [4] is described as follows: Cellular cytotoxicity, MTT assay, Huh7. The format is cell-based. The following applies: human, Huh7 cells, 48 h of treatment. The procedure: as §1
The subject of another data set is HCoV-229E-Luc. As to the kind of experiment: microbe, parasite or virus in culture. It is filed as cell-based, human alphacoronavirus HCoV-229-E. Conditions: Alphacoronavirus, Huh-7, 24 h, read-out: IC50 (nM) Huh7.
For another data set, the system named is RRV^GFP. As to the kind of experiment: microbe, parasite or virus in culture. Conditions: Ross River virus, Vero, 18 h, read-out: IC50 against RRV.
Data set [5] deals with ZIKV^GFP. Kind of data set: ZIKV^GFP antiviral assay, GFP by FACS at 48 h post-infection. It is filed as cell-based. The following applies: Zika virus, Vero, read-out: IC50 against ZIKV. The source says: Vero cells were infected with ZIKV^GFP (MOI=2) and simultaneously treated with increasing concentrations of the compound C1 or ternatin (ten-fold serial dilutions of considered compound).

For the next data set, the system named is DENV. As to the kind of experiment: DENV antiviral assay, infected cells by FACS at 72 h post-infection. The format is cell-based. The following applies: Dengue virus; Vero cells, DENV MOI = 0.1, 72 h post-infection, Figure 9C; read-out: IC50 against DENV. The protocol: At 72 h post-infection, the percentage of DENV-infected cells was measured by FACS assay.

Data set [6] concerns SARS-CoV-2. As to the kind of experiment: Preclinical model in human primary bronchial epithelial cells (Mucilair), viral RNA by qRTPCR. The following applies: Severe acute respiratory syndrome coronavirus 2, Primary bronchial epithelial cell, viral RNA at 72 h post-inoculation, Figure 12, read-out: inhibition of the infection by SARS-CoV-2. It is filed as cell-based. The procedure:
The compound C1 was evaluated on a preclinical model in human primary bronchial epithelial cells (Mucilair) against SARS-CoV-2 (T. Meunier et al., Antimicrob Agents Chemother. 2022 Feb; 66(2): e01581-21). Mucilair cells were inoculated with SARS-CoV-2 in the presence of compound C1 at 0.75, 7.5 or 75 pM for 1 h at the apical side. Inoculum was removed 1 h post-infection. At 72 h post-inoculation, cells were lysed to extract RNA. Viral RNA was quantified by qRTPCR. For RNA quantification, data are expressed relative to the Mock-treated control.
On the technique in general: Real-time PCR tracks product formation cycle by cycle.

For data set [7], the system named is ZIKV^GFP. Kind of data set: Time of drug-addition assay, ZIKV^GFP in A549 cells. Conditions: 10 nM, Figure 11C.
Procedure: Time of drug-addition assay aims at characterizing the antiviral action of the compounds of the invention on various stages of the dissecting virus infectious cycle.
Compound C1 (10 nM) or vehicle were used for treatment of A549 cells for viral inactivation assay, concurrently to virus input (Entry), after virus exposure (Replication) with specific washing steps and incubation periods (Figure 11A).
The data represent the means ± SD of four independent experiments performed in triplicate, and are expressed as relative values compared to vehicle-treated cells.
In data set [8] the test system is SARS-CoV-2. Kind of data set: SARS-CoV-2 viral progeny, PFU assay (plaque-forming assay) of Huh7 supernatant. Conditions: Huh7 cells, MOI=0.01, 24 h post-infection, at 0.6 nM, Figure 10B. The format is cell-based. The procedure: The compound C1 has been tested on the betacoronavirus SARS-CoV-2. Huh7 cells were infected with SARS-CoV-2 (MOI=0.01) and simultaneously treated with increasing concentrations of the compound of formula (I). At 24 h post-infection, cell supernatant was recovered for viral titration (Figure 10B). Viral progeny was measured by a PFU assay (plaque-forming assay) by quantifying infectious particles in the supernatant (PFU/mL).

The mark [9] stands for this setting: A549, 24 h, read-out: IC50 (nM) A549.
Setting [10] is: Huh7.5, 24 h, read-out: IC50 (nM) Huh7.5.
Where [11] appears, read: Vero, 24 h, read-out: IC50 (nM) Vero.

Starred links: 1 amine or outer side, 2 acyl side, 3 side chain; linkers in the order of their positions; H or OH if unused. Non-standard residues stand in square brackets, D forms with d. Residues, ends and D or L forms follow the SMILES beside them. ξ: configuration not given here. X5 = CC(CC(C(=O)[*:2])N(C)[*:1])C(C)OC=O; X2 = CC(COC=O)CC(C(=O)[*:2])N(C)[*:1]; X4 = CC(O)C(C)CC(C(=O)[*:2])N(C)[*:1]; ξNle(4-Me,5-ene) = C=CC(C)CC(N)C(=O)O; X1 = CCC(C)CC(C(=O)[*:2])N(C)[*:1]; X3 = CC(CO)CC(C(=O)[*:2])N(C)[*:1]; ξLeu(3ξ-OH) = CC(C)C(O)C(N)C(=O)O; NMeA = CN[CH](C)C(=O)O

Procedure for RRV^GFP: At 18 h post-infection, the percentage of GFP expressed by the cells is measured by FACS (Flow cytometric analysis of GFP fluorescence). Data represent the means ± SD of four independent experiments performed in triplicate and are expressed as relative values compared to mock-treated control.
Procedure for adult zebrafish: (D) Total distance travelled at 1 day post injection. […] After injection, fish were observed during 5 days. Statistical analyses were conducted using unpaired t-test comparisons, n = 5 (n: number of fishes per group).

In general, IC50 refers to the concentration needed to halve the response being measured. As usually defined, the CC50 is the concentration that lowers cell viability or growth by half. Low readings indicate greater toxicity to the cells, high ones lower toxicity to the cells. On to `C=CC(C)CC1NC(=O)C(CC(C)COC=O)N(C)C(=O)C(C)N(C)C(=O)C(C(C)CC)NC(=O)C(C(O)C(C)C)NC(=O)C(C)N(C)C(=O)C(C)N(C)C1=O` (stereo not shown) [Compound C6, comptonellin F] (cyclo([X2][ξNle(4-Me,5-ene)][NMeA][NMeA][ξLeu(3ξ-OH)]I[NMeA]); configuration not given here), for which the IC50 in the data set on ZIKV^GFP [1] (setting [9]) is 13 nM; in the data set with ZIKV^GFP [1] (setting [10]), 9 nM; with ZIKV^GFP [1] (setting [11]) it was 115 nM; in the data set with HCoV-229E-Luc, 36.8 nM. Further, the CC50 at 48 h in [2] is 3530 nM; in data set [3], 41 nM; in data set [4] it was 22.1 nM.
In the case of `COc1cc(-c2oc3c(OC)c(OC)cc(O)c3c(=O)c2OC)ccc1O` [Ternatin, ternatin], the IC50 in the data set with ZIKV^GFP [1] (setting [9]) came to 92 nM; in the data set with ZIKV^GFP [1] (setting [10]) it was 23 nM; with ZIKV^GFP [1] (setting [11]), 584 nM; with RRV^GFP it was 977 nM; with ZIKV^GFP [5], 860 nM; in the data set with DENV, 493 nM. In addition, the IC50 in the data set on HCoV-229E-Luc came to 157 nM.
As a reminder, the inhibition is the share of the control response that was lost under treatment. Regarding `C=CC(C)CC1NC(=O)C(CC(C)C)N(C)C(=O)C(C)N(C)C(=O)C(C(C)CC)NC(=O)C(C(O)C(C)C)NC(=O)C(C)N(C)C(=O)C(C)N(C)C1=O` (stereo not shown) [Compound C1, comptonellin A], the IC50 is 4 nM in the data set on ZIKV^GFP [1] (setting [9]); 2 nM with ZIKV^GFP [1] (setting [10]); 9 nM in the data set on ZIKV^GFP [1] (setting [11]); 57 nM in the data set with RRV^GFP; 60 nM in the data set with ZIKV^GFP [5]; 42 nM in the data set on DENV. Further, in the data set with HCoV-229E-Luc, the IC50 was found to be 5 nM. For the same compound, in the data set with adult zebrafish (at the effective antiviral dose, injected 10 ng/µL, observed during 5 days), the “toxicity in adult zebrafish” value is reported as “no toxicity”. In the data set with adult zebrafish (injected with 10 ng/µL, 1 day post injection, Figure 13), the “fine-tune locomotor activity of zebrafish” value is “did not impair fine-tune locomotor activity”. For the same compound, the inhibition at 75 pM in the data set with SARS-CoV-2 [6] is > 98%. Besides, the “stage of viral infection targeted” value with ZIKV^GFP [7] is recorded as “targets late stages of viral infection”. The cytotoxic concentration (CC50) at 48 h in [2] was determined as 200 nM; in data set [3] it was 11.2 nM; in data set [4], 4.9 nM. The “reduces SARS-CoV-2 viral progeny production” value in the data set with SARS-CoV-2 [8] worked out at 3 logs.
Turning to `C=CC(C)CC1NC(=O)C(CC(C)C(C)O)N(C)C(=O)C(C)N(C)C(=O)C(C(C)CC)NC(=O)C(C(O)C(C)C)NC(=O)C(C)N(C)C(=O)C(C)N(C)C1=O` (stereo not shown) [Compound C5, comptonellin E] (cyclo([X4][ξNle(4-Me,5-ene)][NMeA][NMeA][ξLeu(3ξ-OH)]I[NMeA]); configuration not given here), the IC50 with ZIKV^GFP [1] (setting [9]) was found to be 40 nM; in the data set with ZIKV^GFP [1] (setting [10]), 11 nM; with ZIKV^GFP [1] (setting [11]), 244 nM; in the data set on HCoV-229E-Luc it was 98.5 nM. Further, the CC50 at 48 h worked out at 4810 nM in data set [2], 99.8 nM in data set [3] and 31.9 nM in [4].
On to `C=CC(C)CC1NC(=O)C(CC(C)CC)N(C)C(=O)C(C)N(C)C(=O)C(C(C)CC)NC(=O)C(C(O)C(C)C)NC(=O)C(C)N(C)C(=O)C(C)N(C)C1=O` (stereo not shown) [Compound C3, comptonellin C] (cyclo([X1][ξNle(4-Me,5-ene)][NMeA][NMeA][ξLeu(3ξ-OH)]I[NMeA]); configuration not given here), for which the IC50 with ZIKV^GFP [1] (setting [9]) was 0.5 nM; with ZIKV^GFP [1] (setting [10]), 0.003 nM; in the data set with ZIKV^GFP [1] (setting [11]) it was 9 nM; in the data set with HCoV-229E-Luc, 2.4 nM. Further, in [2], it took 412 nM to reach half-maximal cytotoxicity (CC50 at 48 h).
Consider `C=CC(C)CC1NC(=O)C(CC(C)C(C)OC=O)N(C)C(=O)C(C)N(C)C(=O)C(C(C)CC)NC(=O)C(C(O)C(C)C)NC(=O)C(C)N(C)C(=O)C(C)N(C)C1=O` (stereo not shown) [Compound C7, comptonellin G] (cyclo([X5][ξNle(4-Me,5-ene)][NMeA][NMeA][ξLeu(3ξ-OH)]I[NMeA]); configuration not given here), for which the IC50 in the data set with ZIKV^GFP [1] (setting [9]) amounted to 46 nM; in the data set with ZIKV^GFP [1] (setting [10]) it was 16 nM; with ZIKV^GFP [1] (setting [11]), 176 nM; in the data set on HCoV-229E-Luc, 15 nM. Besides, the CC50 at 48 h was 379 nM in [2], 80.6 nM in data set [3] and 93.9 nM in data set [4].
On to `C=CC(C)CC1NC(=O)C(CC(C)CO)N(C)C(=O)C(C)N(C)C(=O)C(C(C)CC)NC(=O)C(C(O)C(C)C)NC(=O)C(C)N(C)C(=O)C(C)N(C)C1=O` (stereo not shown) [Compound C4, comptonellin D] (cyclo([X3][ξNle(4-Me,5-ene)][NMeA][NMeA][ξLeu(3ξ-OH)]I[NMeA]); configuration not given here), for which the IC50 in the data set with ZIKV^GFP [1] (setting [9]) is 26 nM; in the data set on ZIKV^GFP [1] (setting [10]) it was 12 nM; in the data set on ZIKV^GFP [1] (setting [11]) it was 163 nM; in the data set with HCoV-229E-Luc, 96.8 nM. Moreover, the CC50 at 48 h in data set [2] turned out to be 3760 nM; in data set [3], 52.8 nM; in [4] it was 9.35 nM.

The values are drawn from patent EP4461367A1, “NEW TERNATIN-TYPE CYCLOPEPTIDES FOR USE IN THERAPY” (Centre National de la Recherche Scientifique, priority 2023, dated 2024).
